Tests used:
CRABP2 = biological target: T1, CRABP2 (Homo sapiens, UniProt P29373); assay: X-ray crystal structure of the CRABP2-10 covalent complex; format: binding; conditions: 1.8 Å structure
T1 construct: His6 (N); made in house; host or cells: E. coli T7 SHuffle Express
T1 sequence (P29373 with tags, fused parts or gaps): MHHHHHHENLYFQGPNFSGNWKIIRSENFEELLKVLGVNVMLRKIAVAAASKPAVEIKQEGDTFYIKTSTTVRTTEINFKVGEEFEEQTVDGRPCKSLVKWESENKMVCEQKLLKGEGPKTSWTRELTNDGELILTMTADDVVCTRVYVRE
Protocol: CRABP2 protein (1000 nmol, 100 μM) was reacted with inhibitor 10 (500 μM, 5 equivalents) in PBS for about 1-50 hours, about 6-20 hours, about 10-18 hours, about 12-16 hours, or about 16 hours. The protein-inhibitor adduct was then purified using SEC and the fractions containing the adduct were pooled, dialyzed, and concentrated to 12 mg/mL (1.275 mL total) using a Centrifugal Filter Unit. […]
Data Processing, Structure Determination and Model Refinement. […] Diffraction data were measured at the Life Sciences Collaborative Access beamlines at Sector 21 of the Advanced Photon Source at Argonne National Laboratory, indexed, integrated and scaled with HKL2000.^4 All subsequent work was conducted using the CCP4 suite of programs.^5 The space group and unit cell parameters were confirmed with Pointless.^6 The structure was determined by molecular replacement with PhaserMR, using a single monomer of Human Cellular Retinoic Acid Binding Protein II (CRABPII) (PDB: 6HKR) with ligands and water molecules removed as the initial phasing model. […]

[1] = biological target: T2, CrabTag protein domain (CRABP2) (Homo sapiens, UniProt P29373); assay: Stability of the covalent CrabTag-linker adduct over two weeks, fluorescent SDS-PAGE; format: physicochemical
T2 construct: made in house; host or cells: E. coli T7 SHuffle Express
T2 sequence (P29373 with tags, fused parts or gaps): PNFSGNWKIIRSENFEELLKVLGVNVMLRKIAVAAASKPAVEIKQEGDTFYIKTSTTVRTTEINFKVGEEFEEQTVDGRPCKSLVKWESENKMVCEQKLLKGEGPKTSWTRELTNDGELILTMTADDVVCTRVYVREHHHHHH

CrabTag (CRABP2) = biological target: T3, CrabTag (CRABP2) (Homo sapiens, UniProt P29373); assay: Intact protein ESI-MS of CrabTag-inhibitor complexes; format: binding; conditions: CrabTag 1 μM, inhibitor 5 μM, 5 minutes
T3 construct: made in house; host or cells: E. coli T7 SHuffle Express
T3 sequence (P29373 2-138): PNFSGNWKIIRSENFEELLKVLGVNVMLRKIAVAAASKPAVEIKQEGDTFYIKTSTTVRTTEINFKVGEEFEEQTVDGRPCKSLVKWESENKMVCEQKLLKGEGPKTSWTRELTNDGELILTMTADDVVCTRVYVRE
Protocol: FIG. 3 illustrates ESI-MS deconvoluted spectra with expected and observed molecular weights for CrabTag with a N-terminal Histag. Top: Purified CrabTag protein with the N-terminal histag and TEV protease recognition sequence (R, Black). Bottom: Adduct from reaction of R (0.1 nmol, 1 μM) with an inhibitor of the disclosure having a structure according to Formula 10 (5 eq., 5 μM) (Red). The reaction occurred in 100 μL of 1×PBS for 5 minutes before being stopped by addition of formic acid in preparation for ESI-MS.
FIG. 4 illustrates intact protein ESI-MS for CrabTag-inhibitor complexes. Reactions of C-terminal Histag R (1 μM, 1 equivalent) with either an inhibitor of the disclosure having a structure according to Formula 10 (5 μM, 5 equivalents) or an inhibitor of the disclosure having a structure according to Formula 11 (5 μM, 5 equivalents) occurred for 5 minutes before being stopped with formic acid.
Megamolecules were prepared for LC-MS analysis and evaluation using ESI-MS. Reaction time points were taken by quenching the sample with 0.1% formic acid. The preparation involved the desalting and dilution of the multi-protein assembly to 1 μM in nuclease free water. […] Spectra data were analyzed with Agilent MassHunter Qualitative Analysis software to reveal m/z data. […]

[2] = biological target: T2, CrabTag protein domain (CRABP2); assay: Quantification of reaction kinetics for CRABP2 (CrabTag) covalent modification, fluorescent SDS-PAGE; format: biochemical
Protocol: The present disclosure provides a method for synthesizing linker 11, which includes a fluorophore to characterize the kinetics for reaction of the covalent inhibitor and CrabTag, as shown in FIG. 10A. The inventors have run parallel reactions that varies the concentration of the linker (2, 5, 10, 20, 40, 65, and 100 μM) at a constant concentration of CrabTag (1 μM) and stops the reactions using Laemmli reducing buffer at times ranging from 0 to 120 seconds, as shown in FIG. 10B. […] The inventors have separated the reaction products with SDS-PAGE and quantitated the mean fluorescence intensity of protein bands that corresponded to the adduct with ImageJ. […]
The inventors synthesized linker 11, which included a fluorophore to characterize the kinetics for reaction of the covalent inhibitor and CrabTag as shown in FIG. 10A The inventors ran parallel reactions that varied the concentration of the linker (2, 5, 10, 20, 40, 65, and 100 μM) at a constant concentration of CrabTag (1 μM) and stopped the reactions using Laemmli reducing buffer at times ranging from 0 to 120 seconds as shown in FIG. 10B. […] The inventors separated the reaction products with SDS-PAGE and quantitated the mean fluorescence intensity of protein bands that corresponded to the adduct with ImageJ. […]

[3] = system: fusion protein containing SnapTag and cutinase domains (CS); assay: Cross-reactivity of SnapTag and cutinase protein domains with the fluorescent CrabTag inhibitor, SDS-PAGE; format: biochemical; conditions: CS 10 μM, linker 1 equiv., 25° C. in PBS; CrabTag protein added next day
Text: FIG. 18A illustrates orthogonality of enzyme-inhibitor pairs in the megamolecule assembly toolbox. A Coomassie stain with brightfield view of SDS-PAGE. Lane 1: CRABP2 (R) protein domain (MW, −16 kDa). Lane 2: Reaction of CRABP2 with fluorescent linker 11. Lane 3: Cutinase-SnapTag (CS) fusion protein (MW, −45 kDa). Lane 4: CS with the CrabTag fluorescent inhibitor. Lane 5: CS with the di-cutinase PEG11 linker to yield a di-CS megamolecule (MW, −90 kDa). Lane 6: CS with the di-SnapTag PEG11 linker to yield a di-CS megamolecule (MW, −90 kDa). Lanes 7-8: CS was first mixed with the CrabTag fluorescent inhibitor for two hours. Afterwards, the di-cutinase PEG11 or the di-SnapTag PEG11 linker was added, forming the di-CS megamolecule (MW, −90 kDa). The next day, the R protein was added to form the fluorescent band shown in the fluorescent SDS-PAGE. Lanes 9-10: R was first mixed with either the di-cutinase PEG11 or the di-SnapTag PEG11 linker for two hours, followed by the addition of the CS fusion protein to form the di-CS megamolecule (MW, −90 kDa). The following day, the fluorescent CrabTag linker was added to form the fluorescent band shown in the fluorescent SDS-PAGE. […]
The orthogonality of the CrabTag enzyme-inhibitor system was examined against our existing two chemistries, cutinase and SnapTag. […] All reactions were imaged by SDS-PAGE using both fluorescence and Coomassie stain.

SMILES	residue covalently modified in crystal structure (CRABP2)	enzyme-inhibitor complex stable (bound) ([1]; room temperature, over two weeks) [%]	adduct stoichiometry by intact mass spectrometry (CrabTag (CRABP2))	effective rate constant of the inhibition reaction ([2]; CrabTag inhibition reaction)	protein domains retaining covalent occupancy of the linker (normalized covalent occupancy) ([1]; 1 μM in PBS, 25° C. (room temperature), after two weeks)	reactivity of the CrabTag linker after incubation with CS fusion protein [3]	second order rate constant for the covalent modification reaction, keff ([2]; CrabTag 1 μM, linker 2-100 μM, times 0 to 120 seconds, ratio of ki and KI)
CC1(C)CCN(C(=O)CCC(=O)O)c2ccc(C#Cc3ccc(OS(=O)(=O)F)cc3)cc21 [inhibitor 10, 4-(6-((4-((fluorosulfonyl)oxy)phenyl)ethynyl)-4,4-dimethyl-3,4-dihydroquinolin-1(2H)-yl)-4-oxobutanoic acid]	selectively modifies Tyr135	> 95	monomeric adducts with only one modification	approximately 3,600 M^−1s^−1	–	–	–
CC1(C)CCN(C(=O)CCC(=O)NCCOCCOCCOCCOCCOCCOCCOCCOCCOCCOCCOCCNC(=O)CCCCCNC(=O)c2ccc3c(c2)C(=O)OC32c3ccc(O)cc3Oc3cc(O)ccc32)c2ccc(C#Cc3ccc(OS(=O)(=O)F)cc3)cc21 [linker 11, Bi-EG(11)-(CrabTag Ligand, Fluorescein)]	–	–	monomeric adducts with only one modification	–	over 95%	maintained selective reactivity with the CrabTag enzyme	(3.6±0.5)×10^3 M^−1s^−1

Reference: patent US20250326723A1, “Development of an Enzyme-Inhibitor Reaction Using Cellular Retinoic Acid Binding Protein II for One-Pot Megamolecule Assembly” (NORTHWESTERN UNIVERSITY, priority 2021, published 2025)
